According to patent US20100234351A1, “FUSED NITROGEN-COMPRISING HETEROCYCLIC COMPOUND” (TAKEDA PHARMACEUTICAL COMPANY LIMITED, priority 2006, published 2010):
Counter-ions that a name gives are not always drawn.

Target: T1, HER2 intracellular domain (Homo sapiens, UniProt P04626)
T1 construct: made in house; host or cells: SF-21 insect cells infected with recombinant baculovirus BAC-HER2
Experiment: Measurement of HER2 kinase inhibitory activity
Assay type: biochemical
Conditions: compound 1.0 μM, poly-Glu:Tyr (4:1) substrate, [γ-32P]ATP, read-out: Inhibitory rate (%) at 1.0 μM
Experimental: Human HER2 gene was cloned by RT-PCR using total RNA prepared from MCF7 cells as a template. The primer used for RT-PCR was prepared from base sequence (Genbank Accession No. M11730) information of HER2 gene, adding base sequence encoding DYKDDDD peptide and a restriction enzyme recognition sequence to a nucleotide sequence (2176-3918 of Genbank Accession No. M11730 as a base, and corresponding to 676-1255 amino acid of Genbank Accession No. NP_004439 as a protein) encoding the HER2 intracellular domain region, so that a DYKDDDD peptide tag would be attached to the N-terminus of the protein. The base sequence of the primer is shown in below.
The RT reaction was performed using Superscript First-Strand Synthesis System for RT-PCR (Invitrogen) and the PCR reaction was performed using KOD-plus kit (TOYOBO). The obtained PCR product was electrophoresed on agarose gel (1%), and the DNA fragment amplified by PCR was recovered from the gel, and then digested with restriction enzymes Sal I and Sph I. The DNA treated with the restriction enzymes was electrophoresed on agarose gel (1%), and the obtained DNA fragment was recovered and ligated to plasmid pFASTBAC1 (Invitrogen) digested with restriction enzymes Sal I and Sph I to give expression plasmid pFB-HER2. The base sequence of the inserted fragment was confirmed and found to be identical with the base sequence of HER2 intracellular domain (2176-3918 of Genbank Accession M11730). Furthermore, using BAC-TO-BAC Baculovirus Expression System (Invitrogen), recombinant baculovirus BAC-HER2 was prepared.
SF-21 cells were sown at 1×10^6 cells/mL to 1 L of Sf-900II SFM medium (Invitrogen) containing 10% fetal calf serum (trace), 50 mg/L gentamicin (Invitrogen) and 0.1% Pluronic F-68 (Invitrogen), and cultured with shaking in 2 L volume Erlenmeyer flask at 27° C., 100 rpm. After culturing for 24 hr, recombinant baculovirus BAC-HER2 (13.4 mL) was added thereto, and the cells were further cultured for 3 days. The culture medium was centrifuged at 2,000 rpm for 5 min to give virus-infected cells. The infected cells were washed with phosphate buffered saline (Invitrogen), centrifuged under the same conditions, and preserved at −80° C. The cryopreserved cells were thawed in ice and suspended in buffer A (50 mM Tris buffer (30 mL, pH 7.4) containing 20% glycerol, 0.15 M NaCl) supplemented with Complete Protease Inhibitor (Boehringer). The cells were ruptured 3 times with a Polytron homogenizer (Kinematica) at 20,000 rpm for 30 sec. The disrupt was clarified by centrifugation at 40,000 rpm for 30 min and filtered with a 0.45 μm filter. The filtrate was passed through a column packed with Anti-FLAG M2 Affinity Gel (4 mL, Sigma Aldrich CO.) at a flow rate of about 0.5 mL/min. The column was washed with buffer A, and eluted with buffer A containing 100 μg/mL of FLAG peptide. The eluate was concentrated with Vivaspin 20 (Vivascience) having a molecular weight cut off of 30K. The concentrate was purified by gel filtration using Hi-Load 16/60 Superdex 200pg (GE Healthcare Bioscience) equilibrated with buffer A. The fractions containing HER2 intracellular domain were collected and cryopreserved at −80° C.
HER2 kinase reaction was carried out using 96-well plate. As a buffer for Kinase reaction, a buffer of a composition of 50 mM Tris-HCl (pH 7.5), 5 mM MnCl2, 2 mM dithiothreitol and 0.01% Tween-20 was used. The compound of the present invention was dissolved in dimethyl sulfoxide (DMSO), and diluted with a buffer for kinase reaction so that the DMSO concentration would become 0.1% during kinase reaction. The compound solution (10 μL) was mixed with a buffer for kinase reaction (20 μL) containing the HER2 intracellular domain (0.625 μg/mL) obtained in Experimental Example 1B and a polypeptide substrate poly-Glu:Tyr (4:1) (12.5 μg/mL, Sigma Ltd.) and the mixture was stood for 5 min at room temperature. […]

T1 sequence (P04626 676-1255): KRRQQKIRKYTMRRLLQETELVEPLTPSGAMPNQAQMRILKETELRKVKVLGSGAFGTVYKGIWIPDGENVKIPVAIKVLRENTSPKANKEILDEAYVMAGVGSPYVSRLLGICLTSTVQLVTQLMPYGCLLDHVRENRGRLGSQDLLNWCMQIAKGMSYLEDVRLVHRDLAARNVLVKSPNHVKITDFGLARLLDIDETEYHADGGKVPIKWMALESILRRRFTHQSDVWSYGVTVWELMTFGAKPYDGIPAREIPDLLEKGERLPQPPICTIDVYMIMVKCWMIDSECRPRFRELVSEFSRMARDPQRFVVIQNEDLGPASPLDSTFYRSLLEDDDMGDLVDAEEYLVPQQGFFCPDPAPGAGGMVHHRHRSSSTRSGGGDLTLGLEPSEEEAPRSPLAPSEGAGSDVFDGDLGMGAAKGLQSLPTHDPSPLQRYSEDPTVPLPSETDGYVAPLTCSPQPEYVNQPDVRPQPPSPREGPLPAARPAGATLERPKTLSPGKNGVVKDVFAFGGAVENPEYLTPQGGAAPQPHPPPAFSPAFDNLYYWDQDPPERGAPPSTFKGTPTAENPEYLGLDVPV

In the case of `CC(C)(C)NC(=O)c1cccc(Oc2ccc(Nc3ncnc4c3C=C(/C=N/OCCO)CCN4)cc2Cl)c1` [Example 231, N-(tert-butyl)-3-{2-chloro-4-[(6-{[(2-hydroxyethoxy)imino]methyl}-8,9-dihydro-7H-pyrimido[4,5-b]azepin-4-yl)amino]phenoxy}benzamide], the inhibition at 1 µM is reported as 97%.

`CC(C)(C)OC(=O)N1CCC(Oc2ccc(Nc3ncnc4c3C=C(CO)CCN4)cc2Cl)CC1` [Example 146, tert-butyl 4-(2-chloro-4-{[6-(hydroxymethyl)-8,9-dihydro-7H-pyrimido[4,5-b]azepin-4-yl]amino}phenoxy)piperidine-1-carboxylate] showed an inhibition at 1 µM of 92%.

`COC(=O)C1=Cc2c(ncnc2Nc2ccc(Oc3cccc(C(=O)NC(C)(C)C)c3)c(Cl)c2)NCC1` [Example 135, methyl 4-[(4-{3-[(tert-butylamino)carbonyl]phenoxy}-3-chlorophenyl)amino]-8,9-dihydro-7H-pyrimido[4,5-b]azepine-6-carboxylate] was tested, and the inhibition at 1 µM was 97%.

In the case of `CCOC(=O)/C=C/C1=Cc2c(ncnc2Nc2ccc(Oc3cccc(C(=O)NC(C)(C)C)c3)c(Cl)c2)NCC1` [Example 246, ethyl (2E)-3-{4-[(4-{3-[(tert-butylamino)carbonyl]phenoxy}-3-chlorophenyl)amino]-8,9-dihydro-7H-pyrimido[4,5-b]azepin-6-yl}acrylate], the inhibition at 1 µM is reported as 98%.

For `CC(C)(CS(=O)(=O)CCO)NC(=O)C1=Cc2c(ncnc2Nc2ccc(Oc3cccc(C(F)(F)F)c3)c(Cl)c2)NCC1` [Example 172, 4-({3-chloro-4-[3-(trifluoromethyl)phenoxy]phenyl}amino)-N-{2-[(2-hydroxyethyl)sulfonyl]-1,1-dimethylethyl}-8,9-dihydro-7H-pyrimido[4,5-b]azepine-6-carboxamide], the inhibition at 1 µM was 95%.

Work on `CC(C)(C)NC(=O)c1cccc(Oc2ccc(Nc3ncnc4c3C=C(CNCCF)CCN4)cc2Cl)c1` [Example 234, N-(tert-butyl)-3-{2-chloro-4-[(6-{[(2-fluoroethyl)amino]methyl}-8,9-dihydro-7H-pyrimido[4,5-b]azepin-4-yl)amino]phenoxy}benzamide] yielded an inhibition at 1 µM of 98%.

`CN(CCS(C)(=O)=O)CC1=Cc2c(ncnc2Nc2ccc(Oc3cccc(C(=O)NC(C)(C)C)c3)c(Cl)c2)NCC1` [Example 242, N-(tert-butyl)-3-(2-chloro-4-{[6-({methyl[2-(methylsulfonyl)ethyl]amino}methyl)-8,9-dihydro-7H-pyrimido[4,5-b]azepin-4-yl]amino}phenoxy)benzamide] was tested, and the inhibition at 1 µM was 99%.

With `CC(C)(CS(=O)(=O)CCO)NC(=O)C1=Cc2c(ncnc2Nc2ccc(Oc3cccc(S(=O)(=O)CC4CC4)c3)c(Cl)c2)NCC1` [Example 227, 4-[(3-chloro-4-{3-[(cyclopropylmethyl)sulfonyl]phenoxy}phenyl)amino]-N-{2-[(2-hydroxyethyl)sulfonyl]-1,1-dimethylethyl}-8,9-dihydro-7H-pyrimido[4,5-b]azepine-6-carboxamide] the inhibition at 1 µM was 93%.

In the case of `CC(C)(C)NC(=O)c1cccc(Oc2ccc(Nc3ncnc4c3C=C(CNC(C)(C)CS(=O)(=O)CCO)CCN4)cc2Cl)c1` [Example 214, N-(tert-butyl)-3-[2-chloro-4-({6-[({2-[(2-hydroxyethyl)sulfonyl]-1,1-dimethylethyl}amino)methyl]-8,9-dihydro-7H-pyrimido[4,5-b]azepin-4-yl}amino)phenoxy]benzamide dihydrochloride], the inhibition at 1 µM is reported as 99%.

With `COC(=O)C1=Cc2c(ncnc2Nc2cnc(Oc3cccc(C(=O)NC(C)(C)C)c3)c(Cl)c2)NCC1` [Example 220, methyl 4-[(6-{3-[(tert-butylamino)carbonyl]phenoxy}-5-chloropyridin-3-yl)amino]-8,9-dihydro-7H-pyrimido[4,5-b]azepine-6-carboxylate] the inhibition at 1 µM was 96%.
